In the test the target is T1, human FSH receptor (Homo sapiens, UniProt P23945).
T1 construct: expressed in transfected cells; host or cells: Chinese Hamster Ovary (CHO) cells, stably transfected; cotransfected with CRE/promoter-firefly luciferase reporter
T1 sequence (P23945 18-695): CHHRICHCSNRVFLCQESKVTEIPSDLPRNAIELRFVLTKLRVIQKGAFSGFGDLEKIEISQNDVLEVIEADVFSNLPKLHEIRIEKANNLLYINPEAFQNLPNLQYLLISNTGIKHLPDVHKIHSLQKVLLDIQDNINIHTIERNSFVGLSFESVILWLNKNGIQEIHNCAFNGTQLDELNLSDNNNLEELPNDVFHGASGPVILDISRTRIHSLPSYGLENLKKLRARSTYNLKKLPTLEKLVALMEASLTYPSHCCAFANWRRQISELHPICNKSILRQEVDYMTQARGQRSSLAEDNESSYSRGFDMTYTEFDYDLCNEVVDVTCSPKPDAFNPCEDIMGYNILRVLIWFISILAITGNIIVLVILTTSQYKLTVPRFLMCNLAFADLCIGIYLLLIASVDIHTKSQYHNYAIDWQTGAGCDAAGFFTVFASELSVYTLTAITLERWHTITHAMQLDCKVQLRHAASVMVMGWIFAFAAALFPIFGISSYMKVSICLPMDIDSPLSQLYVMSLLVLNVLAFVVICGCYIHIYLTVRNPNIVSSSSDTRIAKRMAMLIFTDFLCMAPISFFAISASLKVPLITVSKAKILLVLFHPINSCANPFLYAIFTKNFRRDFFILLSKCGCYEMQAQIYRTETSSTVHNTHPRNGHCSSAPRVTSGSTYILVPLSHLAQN
As to the kind of experiment: Agonistic activity at the human FSH receptor expressed in CHO cells (CRE-luciferase reporter). The class given is cell-based. Conditions: CHO cells stably transfected with the human FSH receptor and a CRE/luciferase reporter, 4 hours of incubation, pEC50 is -logEC50; for EC50: read-out: hFSHRago (CHO luc) pEC50 (converted). As to the method: For the determination a software program such as MathIQ (version 2.0, ID Business Solutions Limited) can be used.
Agonistic activity of compounds at the human FSH receptor expressed in CHO cells
Agonistic activity of the compounds at the human FSH receptor was determined in Chinese Hamster Ovary (CHO) cells stably transfected with the human FSH receptor and cotransfected with a cAMP responsive element (CRE)/promotor directing the expression of a firefly luciferase reporter gene. […] The final concentration of DMSO was 1%. After 4 hours of incubation, plates were allowed to adjust to room temperature for 1 hour. Then, Luclite (PerkinElmer) solution was added to the wells and cells were allowed to lyse for at least 1 hour at room temperature. Subsequently, luciferase activity was measured in a luminescence counter. The signal is expressed as counts per second (cps).
(A reporter such as luciferase makes a cellular process visible.)

In the case of “9-tert-butyl-3-methoxy-2-pyridin-3-yl-14-(1,3-thiazol-5-yl)-5,6,10,11,12,13-hexahydroazocino[4',3':4,5]pyrrolo[2,1-a]isoquinolin-8(9H)-one [11j]”, the “hFSHRago (CHO luc) pEC50” value was found to be 8.51. On to `COc1cc2c(cc1-c1cnn(C)c1)-c1c(-c3cccs3)c3c(n1CC2)C(=O)N(C(C)(C)C)CCC3` [4h], for which the EC50 is 64.6 nM.

In the case of `COc1cc2c(cc1-c1cnccn1)-c1c(-c3cccs3)c3c(n1CC2)C(=O)N(C(C)(C)C)CCC3` [4i, 9-tert-butyl-2-(pyrazin-2-yl)-3-methoxy-13-(2-thienyl)-5,6,9,10,11,12-hexahydro-8H-azepino[4',3':4,5]pyrrolo[2,1-a]isoquinolin-8-one], the EC50 was 13.8 nM. Still for that read-out and setting: the value for `COc1cc2c(cc1-c1cccnc1)-c1c(-c3cccs3)c3c(n1CC2)C(=O)N(C(C)(C)C)CCSC3` [9k, 9-tert-butyl-3-methoxy-2-pyridin-3-yl-14-(2-thienyl)-5,6,10,11,13,13a-hexahydro-7aH-[1,4]thiazocino[7',6':4,5]pyrrolo[2,1-a]isoquinolin-8(9H)-one] was 0.316 nM; that for `COc1cc2c(cc1[C@@H](O)[C@H](O)CO)-c1c(-c3cccs3)c3c(n1CC2)C(=O)N(C(C)(C)C)CCCC3` [21i] was 5.25 nM.
